Test results as given in patent publication US20040023994A1 (priority 2002, published 2004).
“Also recorded” adds a separate entry of the source.

Tests used:
A-498 cells = assay: MTT cytotoxicity assay; assay type: cell-based, human; conditions: for IC50: A-498, 72 h incubation, MTT
Protocol: (§1) Preliminary studies examining the in vitro cytotoxicity of cis-AVTP and trans-AVTG as compared to the parent drugs, were carried out using the 3-[4,5-dimethylthiazol-2-yl]-2,5-diphenyl tetrazolium bromide (MTT) cytotoxicity assay.

ACHN cells = assay: MTT cytotoxicity assay; assay type: cell-based, human; conditions: for IC50: 72 h incubation, MTT
Protocol: as §1

## CC(=O)C=Cc1ccccc1 [PBO, phenylbutenone]
A-498 cells
  IC50: 252 ± 149 µM
ACHN cells
  IC50: 62.3 ± 10.7 µM

## O=C(O)/C=C\Sc1ncnc2[nH]cnc12 [PTA, cis-3-(9H-purin-6-ylthio)acrylic acid]
A-498 cells; A-498, within the concentration range examined (up to 500 μM)
  cytotoxicity: little cytotoxicity; also recorded: not cytotoxic
ACHN cells; within the concentration range examined (up to 500 μM)
  cytotoxicity: little cytotoxicity; also recorded: not cytotoxic

## Cn1cnc([N+](=O)[O-])c1Sc1ncnc2nc[nH]c12 [AZA, azathioprine]
A-498 cells; Homo sapiens, A498
  IC50: 50.2 ± 10.4 µM
ACHN cells; Homo sapiens
  IC50: 22.1 µM
